This is an account of results in PubChem BioAssay AID1996.

Values after ≈ are worked out from the molar mass of the structure shown.

The conditions of the data set: buffer; pH 7.4; 200.0 µM.
On to `COc1ccc(NC(C)=O)cc1CNC(=O)CN1CCOCC1`, for which the kinetic solubility is more than 48.2 µg/mL. With `Cc1cc(/C=N/NC(N)=O)c(C)n1C1CCCCC1`, the solubility (kinetic) was more than 39.4 µg/mL. For the molecule `O=C(Cc1ccccc1)NCc1ccccn1`, the solubility (kinetic) was more than 33.9 µg/mL.

Consider `Cc1cc(NC(=O)c2cccc(Br)c2)no1`, for which the kinetic solubility came out at 4.2 µg/mL (≈ 14.9 µM).

The molecule `CC(C)(C)C1CCC(OC(=O)CN2CCCCC2)CC1` (stereo not given) gave a solubility (kinetic) of 2.4 µg/mL (≈ 8.53 µM). Molecule `O=S(=O)(/N=C(/Nc1nccs1)c1ccc(F)cc1)c1ccccc1` registered a kinetic solubility of 5 µg/mL (≈ 13.8 µM). This solubility kinetic lies about 2.1-fold higher than the previous one. As for `Cc1cccc(Nc2ncnc(N)c2[N+](=O)[O-])n1`, the figure is more than 36.9 µg/mL. In turn, `CCCn1c(=O)c2c(nc3n2CCN3Cc2ccco2)n(C)c1=O` showed a solubility (kinetic) of more than 49.4 µg/mL.

In the case of `CCN(CC)C(=O)COc1c(-c2ccco2)oc2ccccc2c1=O`, the solubility (kinetic) is more than 51.2 µg/mL.

Molecule `Cc1c(C(=O)N2CCN(c3ncccn3)CC2)oc2ccc(F)cc12` had a kinetic solubility of 9.5 µg/mL (≈ 27.9 µM). For `O=C1/C(=C/c2ccccn2)COc2ccccc21`, the kinetic solubility stood at 11.3 µg/mL (≈ 47.6 µM).

Turning to `Brc1cnc2nc(SC/C=C/c3ccccc3)[nH]c2c1`, the kinetic solubility came to 0.3 µg/mL (≈ 0.866 µM). Turning to `CC1(C)CC(=O)C=C(Nc2ccc3c(c2)CCC3)C1`, the solubility (kinetic) stood at 35.8 µg/mL (≈ 140 µM). As for `Cc1c(Cl)cccc1NC(=O)Cc1cccs1`, the figure is 11.1 µg/mL (≈ 41.8 µM); as for `CC(SCc1ccccc1)C(=O)Nc1ccc(F)cc1` (stereo not given), more than 43.4 µg/mL. In the case of `Cc1ccc(C(=O)C[n+]2ccccc2)cc1.[I-]`, the solubility (kinetic) is more than 50.9 µg/mL. Molecule `Cc1ccc(Cl)c(NC(=O)CN2CCNC(=O)C2)c1Cl` had a solubility (kinetic) of more than 47.4 µg/mL. Molecule `Cc1cc2ncn(S(=O)(=O)c3ccc(F)cc3)c2cc1C` yielded a kinetic solubility of 31.8 µg/mL (≈ 104 µM). With `CC(C)(C)c1ccc(OCC(=O)NCCN2CCOCC2)cc1.Cl` the figure was 53 µg/mL; with `O=C(c1ccccn1)N1CCN(S(=O)(=O)c2ccccc2)CC1`, more than 49.7 µg/mL. Turning to `COc1ccc(C)cc1NC(=O)C1CCCCN1S(=O)(=O)c1ccccc1` (stereo not given), the kinetic solubility is 12 µg/mL (≈ 30.9 µM). For `CCNC(=O)CC1C(=O)N(c2ccc(OC)cc2)C(=O)N1CCOC` (stereo not given), the solubility (kinetic) is more than 52.4 µg/mL. `COc1cc(C)c(NC(=O)Cc2ccsc2)cc1OC` showed a kinetic solubility of 42.4 µg/mL (≈ 146 µM). On to `Cc1nc(NC(=O)COC(=O)[C@@H](NC(=O)c2ccco2)C(C)C)c(Cl)cc1Cl`, for which the kinetic solubility was more than 64.2 µg/mL. With `O=C(NCc1ccncc1)c1cc(C(=O)C2CC2)c[nH]1` the figure was 36.2 µg/mL (≈ 134 µM). For the molecule `COc1ccc(NC(=O)c2ccccc2-c2ccccc2)c(C)c1`, the solubility (kinetic) was determined as 7.2 µg/mL (≈ 22.7 µM). On to `CN(C(=O)COC(=O)/C=C/c1cccs1)C1CCCCC1`, for which the solubility (kinetic) turned out to be 17.7 µg/mL (≈ 57.6 µM). The molecule `Cc1cccc(N(CC(=O)N2CCCCCC2)S(C)(=O)=O)c1` came in with a kinetic solubility of more than 48.7 µg/mL. As for `O=C(COC(=O)c1cccc(Cl)c1)NCc1ccccc1`, the figure is 4.6 µg/mL (≈ 15.1 µM); as for `Cc1nnc(SCC(=O)Nc2ccc(S(N)(=O)=O)cc2)n(N)c1=O`, more than 55.6 µg/mL. With `NC(=O)c1c(NC(=O)COC(=O)c2ccc(O)c(Cl)c2)sc2c1CCCC2`, the solubility (kinetic) was found to be 8.5 µg/mL (≈ 20.8 µM). With `CC(C)C(NC(=O)c1ccco1)C(=O)NCc1ccc(C(=O)O)cc1` (stereo not given) the figure was more than 51.7 µg/mL. Take `O=C(NCCCN1CCOCC1)c1cn(-c2ccccc2)nc1-c1ccc(F)cc1`: the kinetic solubility is more than 61.3 µg/mL. `O=C(C(=O)N1CCCCC1)c1c(-c2ccccc2)[nH]c2ccccc12` displayed a kinetic solubility of more than 49.9 µg/mL. With `O=C(Nc1cccc(S(=O)(=O)Nc2ccc(SC(F)F)cc2)c1)C1CCC1`, the solubility (kinetic) amounted to 34.8 µg/mL (≈ 84.4 µM). For `CCOC(=O)c1c(C)n(C)c2cc(Br)c(OC)cc12`, the solubility (kinetic) is less than 0.7 µg/mL. With `CSc1ncccc1C(=O)OCC(=O)NCc1cccs1` the figure was 35.8 µg/mL (≈ 111 µM); with `CCOC(=O)Nc1ccc2c(COC(=O)C(NS(=O)(=O)c3ccc(Cl)cc3)C(C)O)cc(=O)oc2c1` (stereo not given), 20.5 µg/mL (≈ 38 µM). `Clc1cnc(Nc2cccnc2)c(Cl)c1` returned a kinetic solubility of 33.8 µg/mL (≈ 141 µM). `COc1ccc(CNC(=O)C(=O)NCCCn2ccnc2)cc1` gave a solubility (kinetic) of more than 47.5 µg/mL.

In general, solubility (kinetic) refers to solubility judged after dilution from a stock solution rather than from solid.
